Counter-ions that a name gives are not always drawn. Like-named read-outs stand apart in the source and are kept apart here.
What was measured:
[1] = test system: A549 lung adenocarcinoma cells; assay: MTS cell viability assay, A549; format: cell-based, human
Protocol: (§1) Growth inhibitory effects on cultured cells from human vertical growth phase (VGP) melanoma cell line WM115, Lung adenocarcinoma (A549), fibrosarcoma (HT-1080), prostate adenocarcinoma (PC-3), ovarian carcinoma (OVCAR-3), and breast adenocarcinoma (MDA-MB-231) are plated in 96 well plates at a density of 5×10^3 cells/well in 100 μl media. […] Dose response curves for each compound are generated and the IC50 values (μM) determined using GraphPad Prism software. Each experiment is replicated at least 3 times and the average IC50 (μM) values with standard error represented.

[2] = test system: colon adenocarcinoma cells (Caco-2, HT 29, HCT 116, SW 480); assay: MTS viability, four colon cancer cell lines (summary); format: cell-based
Protocol: (§2) The IC50 value is evaluated by treating with increasing concentrations of PBIT, PEIT, PEISe (10-100 μM) or PBISe (1.6-50 μM) for 24-72 hours and the number of viable cell are quantified using MTS (Promega, Wis.).

[3] = test system: MDA-MB-231 breast adenocarcinoma cells; assay: MTS cell viability assay, MDA-MB-231; format: cell-based, human
Protocol: as §1

[4] = test system: 1205Lu melanoma cell line; assay: MTS cell viability assay, 1205Lu; format: cell-based; conditions: Homo sapiens; 1205Lu melanoma; 24 hours treatment; MTS; read-out: IC50, 1205Lu (Table I)
Protocol: Cellular viability compared to control treated cells is measured using the MTS assay (Promega, Madison, Wis.).

[5] = test system: 1205 Lu melanoma tumors; assay: Tumorigenicity assessment, 1205 Lu xenograft, i.p. treatment; format: in vivo, nude mice; conditions: day 24; i.p. 0.315 μmoles (2.5 ppm selenium) Monday, Wednesday, Friday for 3 weeks
Protocol: Tumor kinetics are measured by subcutaneous injection of 5×10^6 UACC 903 or 2.5×10^61205 Lu cells in 0.2 ml of DMEM containing 10% FBS above left and right rib cages of 4-6 week old female nude mice (Harlan Sprague Dawley, Indianapolis, Ind.). Six days later, a fully vascularized tumor has developed and mice are randomly placed in control DMSO or experimental (PBIT or PBISe) groups (n=5 animals; 10 tumors total) followed by i.p. treatment with PBIT ([…]) or PBISe ([…]; equivalent to 2.5 ppm selenium per 20 g mouse) on Monday, Wednesday and Friday for 3 weeks. Dimensions of developing tumors and body weight are measured.

[6] = test system: PC-3 prostate adenocarcinoma cells; assay: MTS cell viability assay, PC-3; format: cell-based, human
Protocol: as §1

[7] = test system: Caco-2 colon adenocarcinoma cells; assay: MTS cell viability assay, Caco-2
Protocol: In vitro inhibitory efficacy is measured using 3-(4,5-dimethylthiazol-2-yl)-5-(3-carboxymethoxyphenyl)-2-(4-sulfophenyl)-2H-tetrazolium (MTS) assay (Promega, Madison, Wis.). […] Cells are treated with either vehicle control, PBS, PBIT (40-120 μM) or PBISe (2.4-10 μM) for 72 h. The percentages of viable cells compared to control PBS treated cells are determined using MTS assay and IC50 values calculated using GraphPad Prism version 4.01 (GraphPad software, San Diego, Calif.). An IC50 value for each compound is determined by at least three independent experiments and represented with a standard error.
as §2

[8] = test system: UACC 903 melanoma cells; assay: Cell cycle analysis (propidium iodide, FACScan); format: cell-based; conditions: 3.5 to 21 μM; 24 hours
Protocol: Cell cycle analysis is undertaken by growing 1.5×10^6 melanoma cells in 100-mm culture dishes followed by treatment with PBIT or PBISe (3.5 to 21 μM) for 24 hours. Cells are collected and stained using propidium iodide (100 μg/mL; Sigma, St Louis, Mo.), 20 μg/mL Ribonuclease A (Roche, Indianapolis, Ind.) 3 μg/mL Triton X-100 dissolved in 0.1% (W/V) sodium citrate for 30 minutes at 4° C. (Krishan, A., J Cell Biol 1975; 66:188-93). Stained cells are analyzed using the FACScan analyzer (Becton Dickinson, San Jose, Calif.) and data processed using ModFit LT software (Verity Software House, Topsham, Me.).

[9] = test system: UACC 903 melanoma cells; assay: Apoptosis, Apo-ONE caspase-3/7 assay; format: cell-based
Protocol: […] Proliferation and apoptosis rates are measured using a BrdU ELISA kit (Roche Applied Sciences, Indianapolis, Ind.) and Apo-ONE Homogenous caspase-3/7 Assay kit (Promega, Madison, Wis.), respectively, (Madhunapantula S V, et al., Cancer Res 2007; 67:3626-36).

[10] = test system: UACC 903 tumors; assay: Apoptosis and proliferation rates in size and time matched tumors; format: in vivo, nude mice; conditions: day 15, i.p. on alternate days
Protocol: For mechanistic studies, 5×10^6 UACC 903 cells are injected subcutaneously into nude mice generating tumors of the same size developing at parallel time points. 6-days later mice are treated i.p. with DMSO vehicle, PBIT or PBISe (0.315 moles each) on alternate days up to day 15. Size and time matched tumors are harvested at days 9, 11, 13, and 15 to assess changes in cell proliferation and apoptosis. […] Protein concentration is quantitated using Bio-Rad protein assay reagent (Bio-Rad laboratories, Hercules, Calif.) and analyzed by Western blotting.
For caspase-3/7 activity determination, 100 μg of protein lysate is incubated with a Rhodamine-110 conjugated caspase-3/7 substrate (Z-DEVD) for 1-2 hours and fluorescence (485 nm excitation and 520 nm emission) measured in a SPECTRAmax M2 plate reader. […] A minimum of 6 different tumors with 4-6 fields per tumor is analyzed and results represented as the average±SEM. […]

[11] = Toxicity of topical application in vivo
Protocol: Blood collected from the control and experimental animals, at the end of treatment (day 29), are analyzed for SGOT, SGPT (representing liver and cardiac toxicity) and alkaline phosphatase (for kidney and cardiac toxicity). Additionally, concentrations of metabolites (glucose, creatinine, urea nitrogen and total protein) in serum are also determined.

[12] = test system: PI3 kinase/Akt3 and MAP kinase signaling in UACC 903 cells; assay: Western blot analysis of melanoma cell lysates; format: cell-based
Protocol: Melanoma cell line UACC 903 cells (1×10^6) are treated with increasing concentrations (7-21 μM) of PBIT and PBISe for 24 hours and cell lysates examined by Western blot analysis Cell lysates are harvested by addition of lysis buffer containing 50 mM HEPES (pH 7.5), 150 mM NaCl, 10 mM EDTA, 10% glycerol, 1% Triton X-100, 1 mM sodium orthovanadate, 0.1 mM sodium molybdate, 1 mM phenylmethylsulfonyl fluoride, 20 μg/ml aprotinin, and 5 μg/ml leupeptin. Whole cell lysates are centrifuged (≧10,000×g) for 10 minutes at 4° C. to remove cell debris. Protein concentrations are quantitated using the BCA assay (Pierce, Rockford, Ill.), and 30 μg of lysate loaded per lane onto NuPAGE Gels (Life Technologies, Carlsbad, Calif.). Following electrophoresis, samples are transferred to polyvinylidene difluoride membrane (Pall Corporation, Pensacola, Fla.). Blots are probed with antibodies to PRAS40 and phosphorylated PRAS40 (Thr246) (Invitrogen, Carlsbad, Calif.); antibodies to iNOS, cyclin D1, p27, p21, Erk2, α-enolase and secondary antibodies conjugated with horseradish peroxidase from Santa Cruz Biotechnology (Santa Cruz, Calif.); and antibodies to Akt3, phosphorylated-Akt (Ser473), phosphorylated-Erk 1/2 (Thr202/Tyr204), caspase-3 and cleaved PARP from Cell Signaling Technology (Danvers, Mass.). Immunoblots are developed using ECL (Pierce, Rockford, Ill.).

[13] = test system: HCT-116 colorectal adenocarcinoma cells; assay: MTS cell viability assay, HCT-116; format: cell-based; conditions: Homo sapiens; HCT-116; 24-72 hours; MTS; read-out: Inhibition of growth IC50, HCT-116 (Table II)
[14] = UACC 903, 7-21 μM, 24 hours, compared to PBIT

With `N=C(N)[Se]CCc1ccc(CC[Se]C(=N)N)cc1` [PBISe, s,s′-1,4-phenylene-bis(1,2-ethanediyl)bis-isoselenourea dihydrobromide] as the compound, how does the IC50 ([1]; Homo sapiens, A549, 24 h, read-out: Inhibition Cancer Cells IC50, A549 (Table III)) read?
Its IC50 is 4.2 ± 0.58 µM.

And the “Fold increase in efficacy (PBIT/PBISe), A549” value ([1]; ratio of IC50 PBIT/PBISe, A549)?
The value was greater than 23.8 fold.

And the “fold more sensitive, colon adenocarcinoma cells than normal cells” value ([2]; colon lines vs FF2441)?
Its value is 2-7 fold.

What about the IC50 ([2]; read-out: IC50 range, four colon cancer cell lines) of the same compound?
The IC50 was 2.4 to 5.55 µM.

What about the IC50 ([3]; Homo sapiens, MDA-MB-231, 24 h, read-out: Inhibition Cancer Cells IC50, MDA-MB-231 (Table III)) of the same compound?
Its IC50 is 6 ± 0.54 µM.

What about the “Fold increase in efficacy (PBIT/PBISe), MDA-MB-231” value ([3]; ratio of IC50 PBIT/PBISe, MDA-MB-231) of the same compound?
Its value is greater than 16.7 fold.

What about the IC50 [4] of the same compound?
The IC50 was 9.8 ± 0.7 µM.

And the “difference in tumor volume compared to control DMSO or PBIT, 1205 Lu” value [5]?
Its value is roughly 50%.

What about the IC50 ([6]; Homo sapiens, 24 h, read-out: Inhibition Cancer Cells IC50, PC-3 (Table III)) of the same compound?
Its IC50 is 6.6 ± 0.95 µM.

And the “Fold increase in efficacy (PBIT/PBISe), PC-3” value ([6]; ratio of IC50 PBIT/PBISe, PC-3)?
Its value is greater than 15.2 fold.

What about the “increase in potency compared to PBIT” value ([7]; Caco-2, 72 h, MTS) of the same compound?
The value was 25 fold.

What about the cells killed ([7]; Caco-2, PBISe at 2-4 μM) of the same compound?
Its cells killed is greater than 80%.

And the “Fold increase in efficacy (PBIT/PBISe), Caco-2” value ([7]; ratio of IC50 PBIT/PBISe, Caco-2)?
Its value is roughly 24.7 fold.

And the IC50 ([7]; read-out: IC50, Caco-2 colon adenocarcinoma cells, Caco-2, 72 h, MTS)?
The IC50 was 2.4 µM.

What about the IC50 ([7]; read-out: Inhibition Cancer Cells IC50, Caco-2 (Table III), Caco-2 colorectal adenocarcinoma, MTS) of the same compound?
Its IC50 is 2.4 ± 0.43 µM.

What about the IC50 ([7]; read-out: Inhibition of growth IC50, Caco-2 (Table II), Caco-2, 24-72 hours, MTS) of the same compound?
The IC50 was 2.4 ± 0.43 µM.

And the “increase in G2/M cells” value [8]?
Its value is roughly 3 fold.

What about the “sub G0/G1 population” value [8] of the same compound?
The value was “increased”.

What about the caspase-3/7 activity ([9]; UACC 903, increasing concentrations up to 10.5 μM, 24 hours, compared to PBIT) of the same compound?
Its caspase-3/7 activity is “elevated”.

And the “cell death at higher doses” value ([9]; doses higher than 10.5 μM)?
The value was greater than 80%.

What about the “caspase-3/7 activity in tumors versus PBIT or DMSO vehicle” value [10] of the same compound?
The value was 2 fold.

What about the “serum enzyme and metabolite levels, topical application” value ([11]; day 29, SGOT, SGPT, alkaline phosphatase, glucose, creatinine, urea nitrogen, total protein) of the same compound?
The value was “no significant differences”.

What about the “body weight, topical application” value ([11]; topical every day, 29 days) of the same compound?
The value was “no detectable differences”.

And the “cleaved caspase-3 and PARP” value ([12]; UACC 903, 7-21 μM, 24 hours)?
Its value is “increases”.

What about the “phosphorylation of downstream Akt3 substrate PRAS40” value ([12]; UACC 903, 7-21 μM, 24 hours) of the same compound?
The value was “inhibited”.

And the Akt phosphorylation [12, 14]?
Its Akt phosphorylation is “inhibits”.

What about the “total Akt protein levels” value [12, 14] of the same compound?
Its value is “decreases”.

What about the “cyclin D1 levels” value ([12]; melanoma cells, FIG. 4C) of the same compound?
Its value is “reduces”.

What about the “p27 as well as p21 levels” value ([12]; three cell lines, FIG. 4C) of the same compound?
Its value is “increases”.

And the IC50 [13]?
The IC50 was 4.72 ± 0.44 µM.
